In publication PMC8948292, “Combining PEGylated mito-atovaquone with MCT and Krebs cycle redox inhibitors as a potential strategy to abrogate tumor cell proliferation” (Scientific Reports, 2022):
Like-named read-outs stand apart in the source and are kept apart here.

How the values were obtained:
MiaPaCa-2 cells = experiment: Cell proliferation (cell confluence), IncuCyte Live-Cell Analysis System; type: cell-based, human; conditions: MiaPaCa-2 cells
Protocol: (§1) The following cell lines were obtained from the American Type Culture Collection (Manassas, VA), where they were regularly authenticated: MiaPaCa-2 (ATCC Cat# CRL-1420, human pancreatic cancer cells), U87MG (ATCC Cat# HTB-14, human brain cancer cells), A549 (ATCC Cat# CCL-185, lung cancer cells), and HCT-116 (ATCC Cat# CCL-247, colon cancer cells). All cell lines were grown at 37 °C in 5% carbon dioxide. MiaPaCa-2 cells were maintained in Dulbecco's Modified Eagle Medium (Thermo Fisher Scientific, Waltham, MA; Cat# 11965) supplemented with 10% fetal bovine serum. U87MG, A549, and HCT-116 cells were maintained in RPMI 1640 medium (Thermo Fisher Scientific, Cat# 11875), supplemented with 10% fetal bovine serum. All cells were stored in liquid nitrogen and used within 20 passages after thawing.
(§2) The IncuCyte Live-Cell Analysis System was used to monitor cell proliferation[3],[33],[67]. As shown in previous publications[3],[67], this imaging system is probe-free and noninvasive, and enables continuous monitoring of cell confluence over several days. The increase in the percentage of cell confluence was used as a surrogate marker of cell proliferation. In a 96-well plate, cells were plated at 1,000 cells per well in triplicates and left to adhere overnight. Cells were then treated with Mito-PEG-ATO analogs, and the cell confluency was recorded over several days in the IncuCyte Live-Cell Analysis System.

[1] = target: mitochondrial complex I (MiaPaCa-2 cells) (Homo sapiens, UniProt O75251+O75306+P03886); experiment: Complex I-dependent oxygen consumption in permeabilized cells, Seahorse XF-96; type: cell-based; conditions: 24 h, with Mito-PEG5-ATO
mitochondrial complex I (MiaPaCa-2 cells), sequence (O75306 34-463): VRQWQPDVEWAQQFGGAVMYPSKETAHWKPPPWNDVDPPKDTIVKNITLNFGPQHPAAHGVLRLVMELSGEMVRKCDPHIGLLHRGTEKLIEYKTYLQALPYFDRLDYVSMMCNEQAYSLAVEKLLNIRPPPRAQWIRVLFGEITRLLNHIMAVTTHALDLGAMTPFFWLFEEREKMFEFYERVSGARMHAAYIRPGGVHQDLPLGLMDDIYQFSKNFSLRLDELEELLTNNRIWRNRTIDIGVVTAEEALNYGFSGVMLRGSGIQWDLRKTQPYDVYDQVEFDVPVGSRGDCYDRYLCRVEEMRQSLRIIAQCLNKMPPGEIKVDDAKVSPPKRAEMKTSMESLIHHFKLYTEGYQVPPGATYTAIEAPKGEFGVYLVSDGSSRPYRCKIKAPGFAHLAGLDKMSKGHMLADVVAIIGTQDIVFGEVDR
mitochondrial complex I (MiaPaCa-2 cells), sequence (O75251 39-213): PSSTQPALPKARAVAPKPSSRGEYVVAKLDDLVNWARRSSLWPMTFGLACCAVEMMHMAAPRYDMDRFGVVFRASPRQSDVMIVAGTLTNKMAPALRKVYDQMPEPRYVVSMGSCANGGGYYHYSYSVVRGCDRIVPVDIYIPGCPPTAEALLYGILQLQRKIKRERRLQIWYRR
mitochondrial complex I (MiaPaCa-2 cells), sequence (P03886 whole entry): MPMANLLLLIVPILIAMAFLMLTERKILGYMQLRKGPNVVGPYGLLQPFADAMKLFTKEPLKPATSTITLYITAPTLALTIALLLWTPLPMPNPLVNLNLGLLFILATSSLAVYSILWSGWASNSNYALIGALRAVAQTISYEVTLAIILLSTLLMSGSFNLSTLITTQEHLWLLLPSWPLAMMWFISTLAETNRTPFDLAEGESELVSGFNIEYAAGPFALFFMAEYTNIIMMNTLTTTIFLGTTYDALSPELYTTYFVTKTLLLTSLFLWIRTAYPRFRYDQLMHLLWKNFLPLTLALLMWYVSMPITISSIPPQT
Protocol: Mitochondrial oxygen consumption was measured using the Seahorse XF-96 Extracellular Flux Analyzer (Agilent, North Billerica, MA)[3],[33],[67],[68]. To determine the intact cell mitochondrial function of MiaPaCa-2 cells in response to Mito-PEG-ATO analogs, we used the bioenergetic function assay previously described[2],[3]. […] From these measurements, indices of mitochondrial function were determined as previously described[2],[3]. For mitochondrial complex activities assays, after cells were treated with Mito-PEG-ATO analogs for 24 h, the OCR-based assessment of mitochondrial complex activities was carried out on acutely permeabilized cells in the presence of different mitochondrial substrates, i.e., pyruvate/malate for complex I and duroquinol for complex III[3],[32],[34],[69]. Rotenone, malonate, and antimycin A (Sigma-Aldrich, St. Louis, MO) were used as specific inhibitors of mitochondrial complexes I, II, and III, respectively. Briefly, cells that were intact after treatments were immediately permeabilized using the Seahorse XF Plasma Membrane Permeabilizer (Agilent). The mitochondrial complex I-induced OCR was assayed in mannitol and sucrose buffer[69] containing 10 mM pyruvate and 1.5 mM malate (substrates for complex I) and 10 mM malonate (which inhibits complex II activities). […] The IC50 values were determined as previously reported.

[2] = target: mitochondrial complex III (MiaPaCa-2 cells) (Homo sapiens, UniProt P00156); experiment: Complex III-dependent oxygen consumption in permeabilized cells, Seahorse XF-96; type: cell-based; conditions: MiaPaCa-2 cells; with Mito-PEG5-ATO
mitochondrial complex III (MiaPaCa-2 cells), sequence (P00156 whole entry): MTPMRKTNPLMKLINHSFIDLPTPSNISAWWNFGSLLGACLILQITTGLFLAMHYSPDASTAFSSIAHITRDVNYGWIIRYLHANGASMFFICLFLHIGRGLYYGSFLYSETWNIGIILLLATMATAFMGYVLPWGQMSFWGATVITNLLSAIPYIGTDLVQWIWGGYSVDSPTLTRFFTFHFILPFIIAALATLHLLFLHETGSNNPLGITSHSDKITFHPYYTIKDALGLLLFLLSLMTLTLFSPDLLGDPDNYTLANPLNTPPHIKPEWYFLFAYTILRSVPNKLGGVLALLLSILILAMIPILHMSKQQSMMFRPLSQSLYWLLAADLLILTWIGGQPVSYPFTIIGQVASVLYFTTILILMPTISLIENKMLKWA
mitochondrial complex III (MiaPaCa-2 cells), sequence (P47985 whole entry partner): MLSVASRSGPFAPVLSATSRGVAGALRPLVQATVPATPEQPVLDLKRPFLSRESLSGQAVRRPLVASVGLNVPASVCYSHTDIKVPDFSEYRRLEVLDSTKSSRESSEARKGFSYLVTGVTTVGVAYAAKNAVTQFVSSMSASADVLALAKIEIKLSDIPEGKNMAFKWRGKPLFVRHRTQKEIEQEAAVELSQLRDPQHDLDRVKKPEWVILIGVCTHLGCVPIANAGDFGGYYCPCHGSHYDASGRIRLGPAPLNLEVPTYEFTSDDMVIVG
Protocol: (§3) Mitochondrial oxygen consumption was measured using the Seahorse XF-96 Extracellular Flux Analyzer (Agilent, North Billerica, MA)[3],[33],[67],[68]. To determine the intact cell mitochondrial function of MiaPaCa-2 cells in response to Mito-PEG-ATO analogs, we used the bioenergetic function assay previously described[2],[3]. […] From these measurements, indices of mitochondrial function were determined as previously described[2],[3]. For mitochondrial complex activities assays, after cells were treated with Mito-PEG-ATO analogs for 24 h, the OCR-based assessment of mitochondrial complex activities was carried out on acutely permeabilized cells in the presence of different mitochondrial substrates, i.e., pyruvate/malate for complex I and duroquinol for complex III[3],[32],[34],[69]. Rotenone, malonate, and antimycin A (Sigma-Aldrich, St. Louis, MO) were used as specific inhibitors of mitochondrial complexes I, II, and III, respectively. Briefly, cells that were intact after treatments were immediately permeabilized using the Seahorse XF Plasma Membrane Permeabilizer (Agilent). The mitochondrial complex I-induced OCR was assayed in mannitol and sucrose buffer[69] containing 10 mM pyruvate and 1.5 mM malate (substrates for complex I) and 10 mM malonate (which inhibits complex II activities). The mitochondrial complex III-driven OCR was assayed in a mannitol and sucrose buffer containing 0.5 mM duroquinol (substrate for complex III) as well as 1 µM rotenone and 10 mM malonate (which inhibit both complex I and II activities). The IC50 values were determined as previously reported.

A549 cells = experiment: Cell proliferation (cell confluence), IncuCyte Live-Cell Analysis System; type: cell-based; conditions: Homo sapiens; A549 cells; control ~90% confluence; read-out: IC50, inhibition of A549 cell proliferation
Protocol: as §1, §2
(§4) Figure S7. Effects of Mito-PEG-ATO analogs on the proliferation of human lung cancer (A549) cells and human colon cancer (HCT-116) cells. (A) The effects of Mito-PEG5-ATO and ATO on the proliferation of A549 (left) or HCT-116 (right) cells were monitored in the IncuCyte Live-Cell Analysis system. The IncuCyte analyzer provides real-time updates on cell confluence, based on segmentation of high definition-phase contrast images. Representative cell images were shown as a segmentation mask illustrated in brown when control cells reached 90% confluence (vertical solid black line). (B) The IC50 values for A549 (left) or HCT-116 (right) cells were determined at the point at which control cells reached ~90% confluence (vertical solid black line). Relative cell confluence (control is taken as 100%) is plotted against concentration. Dashed lines represent the fitting curves used to determine the IC50 values as indicated. Data shown are the mean±SD.

HCT-116 cells = experiment: as above; type: cell-based; conditions: Homo sapiens; HCT-116 cells; control ~90% confluence; read-out: IC50, inhibition of HCT-116 cell proliferation
Protocol: as §1, §2, §4

[3] = test system: mitochondrial respiration (OCR) in intact MiaPaCa-2 cells; experiment: Intact cell mitochondrial respiration (basal OCR), Seahorse XF-96; type: cell-based, human; conditions: 24 h treatment; for OCR (pmol/min/µg protein): intact MiaPaCa-2 cells, baseline OCR, mean, n=4
Protocol: as §3

IC50 (MiaPaCa-2 cells; Homo sapiens, MIA PaCa-2, determined when control cells reached ~90% confluence, read-out: IC50, inhibition of cell proliferation) | IC50 (A549 cells) | IC50 (HCT-116 cells) | IC50 ([3]; Homo sapiens, MIA PaCa-2, MiaPaCa-2 cells, read-out: IC50, inhibition of basal OCR in intact cells) | Structure (SMILES) | Inhibition of cell proliferation in combination with Mito-PEG5-ATO (combination index) (MiaPaCa-2 cells; combined with Mito-PEG5-ATO) | % changes of IC50 with vs without Mito-PEG5-ATO (MiaPaCa-2 cells; heat map Fig. 7d) | IC50 (MiaPaCa-2 cells; inhibitor alone, control ~90% confluence, read-out: IC50 (cell proliferation) without Mito-PEG5-ATO) | Effect on the decrease in complex I-induced oxygen consumption induced by Mito-PEG5-ATO [1] | Effect on the decrease in complex III-induced oxygen consumption induced by Mito-PEG5-ATO [2] | OCR (pmol/min/µg protein) ([3]; 1 µM) | OCR (pmol/min/µg protein) ([3]; 3 µM) | OCR (pmol/min/µg protein) ([3]; 10 µM) | OCR (pmol/min/µg protein) ([3]; 15 µM) | OCR (pmol/min/µg protein) ([3]; 17.5 µM) | OCR (pmol/min/µg protein) ([3]; 20 µM) | OCR (pmol/min/µg protein) ([3]; 22.5 µM) | OCR (pmol/min/µg protein) ([3]; 25 µM) | OCR (pmol/min/µg protein) ([3]; 30 µM) | OCR (pmol/min/µg protein) ([3]; 40 µM) | OCR (pmol/min/µg protein) ([3]; 50 µM)
 |  |  |  | Cc1cccc(COc2ccccc2CN(CC[C@H](N)C(=O)O)Cc2ccccc2OCc2cccc(C)c2)c1 [V-9302, reference compound] | synergistically inhibited | 71.1% | 8.6 µM | Neither AZD-3965 nor V-9302 significantly affected | Neither AZD-3965 nor V-9302 significantly affected |  |  |  |  |  |  |  |  |  |  | 
19 µM | 24 µM | 20 µM | 6.5 µM | O=C1C(O)=C([C@H]2CC[C@H](c3ccc(Cl)cc3)CC2)C(=O)c2ccccc21 [ATO, atovaquone] |  |  |  |  |  | 11.69 pmol/min/µg protein | 11.27 pmol/min/µg protein | 4.45 pmol/min/µg protein | 3.40 pmol/min/µg protein | 2.08 pmol/min/µg protein | 1.80 pmol/min/µg protein | 2.05 pmol/min/µg protein | 2.46 pmol/min/µg protein | 1.99 pmol/min/µg protein | 2.11 pmol/min/µg protein | 0.93 pmol/min/µg protein
